# Tested on: Rhyncosporium secalis
# Assay: Fungicidal activity: barley scald (RHYNSE)
# Format: in vivo
# Conditions: 100 ppm, 1 Day Protectant
# Protocol: Technical grades of materials were dissolved in acetone, which were then mixed with nine volumes of water containing 110 ppm Triton X-100. The fungicide solutions were applied onto wheat seedlings using an automated booth sprayer to run-off. All sprayed plants were allowed to air dry prior to further handling. Wheat plants (variety Yuma) were grown from seed in a greenhouse in 50% mineral soil/50% soil-less Metro mix until the first leaf was fully emerged, with 7-10 seedlings per pot. These plants were inoculated with an aqueous spore suspension of Septoria tritici either prior to or after fungicide treatments. After inoculation the plants were kept in 100% relative humidity (one day in a dark dew chamber followed by two to three days in a lighted dew chamber at 20° C.) to permit spores to germinate and infect the leaf. The plants were then transferred to a greenhouse set at 20° C. for disease to develop. When disease symptoms were fully expressed on the 1st leaves of untreated plants, infection levels were assessed on a scale of 0 to 100 percent disease severity. Percent disease control was calculated using the ratio of disease severity on treated plants relative to untreated plants. Evaluation of Fungicidal Activity: Barley Scald (Rhyncosporium secalis; Bayer Code […]) Barley seedlings (variety Harrington) were propagated in soil-less Metro mix, with each pot having 8 to 12 plants, and used in the test when first leaf was fully emerged. Test plants were inoculated by an aqueous spore suspension of Rhyncosporium secalis 24 hr after fungicide treatments. After inoculation the plants were kept in a dew room at 20° C. with 100% relative humidity for 48 hr. The plants were then transferred to a greenhouse set at 20° C. for disease to develop. Fungicide formulation, application and disease assessment on the sprayed leaves followed the procedures as described in the Example A.
row,SMILES,Disease Control RHYNSE 1 DP
1,COc1ccnc(C(=O)N[C@H]2COC[C@H](Oc3ccccc3)[C@@H](Oc3ccccc3)[C@H](C)OC2=O)c1OCOC(C)=O [Compound 84],A (80-100)
2,CCCO[C@H]1COC[C@H](NC(=O)c2nccc(OC)c2OCOC(C)=O)C(=O)O[C@@H](C)[C@@H]1Oc1ccccc1 [Compound 221],A (80-100)
3,CCCO[C@H]1[C@H](C)OC(=O)[C@@H](NC(=O)c2nccc(OC)c2OCOC(C)=O)COC[C@@H]1Oc1ccccc1 [Compound 222],A (80-100)
4,"COc1ccnc(C(=O)N[C@H]2COC[C@H](Oc3ccc(F)cc3)[C@@H](Oc3ccc(F)cc3)[C@H](C)OC2=O)c1OC(C)=O [Compound 229, 2-(((3S,7S,8S,9S)-7,8-bis(4-fluorophenoxy)-9-methyl-2-oxo-1,5-dioxonan-3-yl)carbamoyl)-4-methoxypyridin-3-yl acetate]",A (80-100)
5,COc1ccnc(C(=O)N[C@H]2COC[C@H](Oc3ccc(F)cc3)[C@@H](Oc3ccc(F)cc3)[C@H](C)OC2=O)c1OCOC(C)=O [Compound 231],A (80-100)

# Reference: patent publication US9144239B2, “Macrocyclic picolinamides as fungicides” (DOW AGROSCIENCES LLC, priority 2012, dated 2015)
